Results as given in patent US20230228744A1, “DRY EYE DISEASE BIOMARKERS AND THEIR USE FOR TREATMENT” (Aldeyra Therapeutics, Inc., priority 2020, published 2023).
“Also recorded” adds a separate entry of the source.

Test system: malondialdehyde (MDA) adducts in tears
Assay: Phase 2a clinical study, MDA adduct competitive ELISA in tears
Type: in vivo, human
Details: 28 days (4 weeks) of treatment, pooled reproxalap groups
Source text: The study was to assess levels of malondialdehyde (MDA) adducts in tears collected from subjects with dry eye disease enrolled in a Phase 2a, randomized, double-masked, clinical study to assess the safety, tolerability, and pharmacodynamic activity of ADX-102 ophthalmic solution in subjects with dry eye diseases, also referred to herein as dry eye syndrome (DES).
Tears were collected during Visit 1, prior to treatment, and during Visit 3, following four weeks of treatment. Treatment groups consisted of ADX-102 Ophthalmic Solution (0.5%), ADX-102 Ophthalmic Solution (0.1%), and ADX-102 Ophthalmic Lipid Solution (0.5%). […]
The assay is a competitive ELISA. […] The plate is read in a microplate reader at 450 nm. The assay OD reading decreases with increasing MDA adducts in the samples, as the adsorbed MDA competes for binding to the MDA antibody with MDA adducts in the test sample. […]
DES Study Samples. Based on the results of the pilot assay, a 1:60 dilution was determined to maximize the likelihood of the OD values falling within the linear portion of the standard curve, and thus provide the most accurate results. All tear samples from subjects (0.5% ADX-102 Ophthalmic Solution) and (0.1% ADX-102 Ophthalmic Solution) were analyzed, but results from some tear samples were excluded from the data analysis due to contamination with ocular staining dye in the Visit 3 samples. […]

SMILES: CC(C)(O)c1nc2ccc(Cl)cc2cc1N [reproxalap, Reproxalap]
- tear MDA adduct / RASP levels after treatment relative to baseline (pooled groups): reduction in tear RASP levels; also recorded: statistically lower
